Active and inactive are the calls of the source. The rule behind the calls is not given here.
Tests used:
MCF7 [1] = assay: Inhibition of colony formation in human MCF7 cells incubated for 14 days with replacement of medium for every 3 or 4 days by crystal violet staining based visual analysis; assay type: functional, cell-based
SUM-159-PT [2] = assay: Inhibition of mammosphere formation in human SUM159 cells assessed as reduction in number of mammosphere at 1 uM incubated for 10 days by microscopic analysis; assay type: functional
MCF7 [3] = assay: Antiproliferative activity against human MCF7 cells assessed as reduction in cell viability incubated for 2 days by MTT assay; assay type: functional, cell-based; details: MCF7, 48 h
MDA-MB-231 [4] = assay: Antiproliferative activity against human MDA-MB-231 cells assessed as reduction in cell viability incubated for 2 days by MTT assay; assay type: functional, cell-based; details: MDA-MB-231, 48 h
MDA-MB-231 [5] = assay: Downregulation of NF-kappaB-p65 expression in human MDA-MB-231 cells incubated for 48 hrs by Western blot analysis; assay type: functional, cell-based
MCF7 [6] = assay: Inhibition of colony formation in human MCF7 cells at 0.20 uM incubated for 14 days with replacement of medium for every 3 or 4 days by crystal violet staining based visual analysis relative to control; assay type: functional
SUM-159-PT [7] = assay: Inhibition of mammosphere formation in human SUM159 cells assessed as reduction in number of mammosphere at 2 uM incubated for 10 days by microscopic analysis; assay type: functional
MDA-MB-231 [8] = assay: Inhibition of cell migration of human MDA-MB-231 cells at 0.40 and 0.80 uM incubated for 48 hrs by scratch wound healing assay; assay type: functional, cell-based
[9] = Toxicity in zebra fish assessed as survival rate at 250 uM observed for 24 hrs; parameters: species or system Danio rerio; details: zebrafish
KG-1a = assay: Antiproliferative activity against human KG1a cells assessed as reduction in cell viability incubated for 2 days by MTT assay; assay type: functional, cell-based; details: 48 h
SUM-159-PT [10] = assay: Inhibition of mammosphere formation in human SUM159 cells incubated for 10 days by microscopic analysis; assay type: functional, cell-based
[11] = target: Transcription factor p65 (Homo sapiens) (UniProt Q04206); assay: Inhibition of LPS-stimulated NF-kappaB-p65 in human MDA-MB-231 cells at 0.40 and 0.80 uM incubated for 24 hrs by dual luciferase reporter gene assay; assay type: cell-based
SK-BR-3 = assay: Antiproliferative activity against human SKBR3 cells assessed as reduction in cell viability incubated for 2 days by MTT assay; assay type: functional, cell-based; details: SK-BR-3, 48 h
SUM-159-PT [12] = assay: Antiproliferative activity against human SUM159 cells assessed as reduction in cell viability incubated for 2 days by MTT assay; assay type: functional, cell-based; details: 48 h
SUM-159-PT [13] = assay: Inhibition of mammosphere formation in human SUM159 cells assessed as reduction in number of mammosphere at 0.5 uM incubated for 10 days by microscopic analysis; assay type: functional

Chain of Transcription factor p65 (Homo sapiens) (Q04206 whole entry): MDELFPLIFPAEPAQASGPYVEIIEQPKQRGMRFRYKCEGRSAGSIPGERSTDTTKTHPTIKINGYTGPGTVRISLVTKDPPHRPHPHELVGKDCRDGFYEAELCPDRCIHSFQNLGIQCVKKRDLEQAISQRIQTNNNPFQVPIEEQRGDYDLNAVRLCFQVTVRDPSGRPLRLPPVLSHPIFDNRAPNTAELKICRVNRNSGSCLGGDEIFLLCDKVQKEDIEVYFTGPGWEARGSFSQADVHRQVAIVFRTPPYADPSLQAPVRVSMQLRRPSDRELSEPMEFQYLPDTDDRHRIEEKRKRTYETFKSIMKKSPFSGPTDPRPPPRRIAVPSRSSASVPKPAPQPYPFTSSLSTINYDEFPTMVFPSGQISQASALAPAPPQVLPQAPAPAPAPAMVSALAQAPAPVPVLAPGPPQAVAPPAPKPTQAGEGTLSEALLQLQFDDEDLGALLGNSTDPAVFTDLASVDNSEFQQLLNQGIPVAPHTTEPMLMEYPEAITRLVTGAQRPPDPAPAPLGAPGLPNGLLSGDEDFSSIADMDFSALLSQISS

## O=C(CCC(=O)N1CCN(CCCN2c3ccccc3Sc3ccccc32)CC1)OCCOc1no[n+]([O-])c1S(=O)(=O)c1ccccc1
MCF7 [1]
  inhibition: Dose-dependent effect
SUM-159-PT [2]
  Activity: 2
MCF7 [3]
  IC50: 3230 nM
MDA-MB-231 [4]
  IC50: 1600 nM
MDA-MB-231 [5]
  Activity: Dose-dependent effect
MCF7 [6]
  inhibition at 0.2 µM: 10.3%
SUM-159-PT [7]
  Activity: 1
MDA-MB-231 [8]
  inhibition: Active
[9]
  survival at 24 h, 250 µM: 51.6%
KG-1a
  IC50: 1780 nM
SUM-159-PT [10]
  inhibition: Dose-dependent effect
[11]
  inhibition: Active
SK-BR-3
  IC50: 2220 nM
SUM-159-PT [12]
  IC50: 1780 nM
SUM-159-PT [13]
  Activity: 8

From ChEMBL document CHEMBL4342417, “Design, synthesis and evaluation of novel phenothiazine derivatives as inhibitors of breast cancer stem cells” (Eur J Med Chem, 2019)
